molecular target: T1, α4β7 integrin (Homo sapiens, UniProt P13612+P26010); assay: MAdCAM-1/α4β7 integrin binding inhibitory activity evaluation test (RPMI-8866 cells binding to MAdCAM-1/Fc); type: cell-based; conditions: recombinant mouse MAdCAM-1/Fc, no serum
T1 construct: a cell line RPMI-8866, which is known to express α4β7 integrin; endogenous in cells; host or cells: RPMI-8866 (human B cell line)
T1 sequence (P13612 34-1032): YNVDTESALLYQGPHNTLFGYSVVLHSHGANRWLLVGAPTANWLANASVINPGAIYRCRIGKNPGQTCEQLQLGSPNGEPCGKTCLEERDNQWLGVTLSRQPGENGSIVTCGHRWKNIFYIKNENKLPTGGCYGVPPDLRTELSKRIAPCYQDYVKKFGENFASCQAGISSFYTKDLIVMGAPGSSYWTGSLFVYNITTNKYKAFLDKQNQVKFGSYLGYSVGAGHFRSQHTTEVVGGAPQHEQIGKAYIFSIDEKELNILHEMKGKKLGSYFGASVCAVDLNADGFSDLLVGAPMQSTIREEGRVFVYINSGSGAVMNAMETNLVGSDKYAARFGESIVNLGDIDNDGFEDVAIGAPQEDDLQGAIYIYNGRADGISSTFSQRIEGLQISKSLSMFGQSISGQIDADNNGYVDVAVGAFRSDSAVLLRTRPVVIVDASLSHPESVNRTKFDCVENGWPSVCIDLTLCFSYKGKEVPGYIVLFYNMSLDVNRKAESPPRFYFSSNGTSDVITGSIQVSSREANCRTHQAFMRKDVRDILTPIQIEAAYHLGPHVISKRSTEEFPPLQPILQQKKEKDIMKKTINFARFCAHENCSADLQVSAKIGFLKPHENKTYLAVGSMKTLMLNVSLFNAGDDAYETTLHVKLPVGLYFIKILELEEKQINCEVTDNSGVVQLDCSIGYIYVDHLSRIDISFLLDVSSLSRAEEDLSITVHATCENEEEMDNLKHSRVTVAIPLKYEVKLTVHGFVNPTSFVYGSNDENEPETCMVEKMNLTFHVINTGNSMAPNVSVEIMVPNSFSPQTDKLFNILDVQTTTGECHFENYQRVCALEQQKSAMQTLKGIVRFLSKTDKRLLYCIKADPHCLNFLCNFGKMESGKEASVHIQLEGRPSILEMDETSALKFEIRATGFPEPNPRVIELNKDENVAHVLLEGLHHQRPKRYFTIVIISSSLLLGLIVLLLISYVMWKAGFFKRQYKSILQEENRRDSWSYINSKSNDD
T1 sequence (P26010 20-798): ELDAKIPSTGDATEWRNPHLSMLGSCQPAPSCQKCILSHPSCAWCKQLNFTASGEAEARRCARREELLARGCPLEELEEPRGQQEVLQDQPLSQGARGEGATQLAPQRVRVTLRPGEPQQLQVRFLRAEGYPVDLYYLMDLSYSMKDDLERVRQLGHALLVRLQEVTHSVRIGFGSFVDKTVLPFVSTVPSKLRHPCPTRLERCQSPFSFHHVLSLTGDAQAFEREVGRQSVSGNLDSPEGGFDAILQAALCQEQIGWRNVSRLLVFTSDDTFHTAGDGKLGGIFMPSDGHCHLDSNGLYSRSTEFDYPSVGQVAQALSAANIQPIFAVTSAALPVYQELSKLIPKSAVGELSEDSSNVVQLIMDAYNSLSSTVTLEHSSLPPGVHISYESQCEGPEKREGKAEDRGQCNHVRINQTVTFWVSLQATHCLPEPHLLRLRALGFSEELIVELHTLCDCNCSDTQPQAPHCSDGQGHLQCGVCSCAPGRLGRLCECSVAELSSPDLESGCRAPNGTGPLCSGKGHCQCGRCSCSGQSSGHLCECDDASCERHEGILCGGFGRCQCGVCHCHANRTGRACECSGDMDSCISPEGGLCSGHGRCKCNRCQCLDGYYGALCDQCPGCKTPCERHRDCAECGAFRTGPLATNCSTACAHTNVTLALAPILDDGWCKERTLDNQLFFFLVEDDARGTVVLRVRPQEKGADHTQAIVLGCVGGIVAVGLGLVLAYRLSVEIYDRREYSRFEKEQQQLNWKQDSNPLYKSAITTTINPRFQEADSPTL
Procedure: (2) MAdCAM-1/α4β7 Integrin Binding Inhibitory Activity Evaluation Test
Each test substance was measured in terms of an ability to inhibit the MAdCAM-1 binding of a human B cell line, namely, a cell line RPMI-8866, which is known to express α4β7 integrin.
A solution of recombinant mouse MAdCAM-1/Fc (R&D Systems, Inc.) (0.75 μg/mL) diluted with a buffer A (carbonate buffer, pH 9.6) was added in an amount of 50 μL/well to a 96-well microtiter plate, followed by incubation at 4° C. overnight. After the plate was washed with PBS once, 150 μL/well of Block Ace (Snow Brand Milk Products Co., Ltd.) was added, followed by incubation at room temperature for 2 hours. After removal, the plate was washed with PBS once.
Then, 100 μL of the RPMI-8866 cells (2×10^6 cells/mL) and 100 μL of the test substance at each of various concentrations diluted with a binding buffer (DMEM containing 40 mM HEPES, 0.2% BSA, and 4 mM MnCl2) were added on the plate coated with the MAdCAM-1/Fc (5×10^5 cells/well), followed by incubation at 30° C. for 15 to 60 minutes. After the cells were bound to the wells, the plate was washed with PBS to remove unbound cells. A buffer C (PBS containing 1.5% Triton X-100) in an amount 50 μL/well was added to the plate to lyse the bound RPMI-8866 cells. After 30 μL of a substrate buffer (Promega, CytoTox 96 Non-Radioactive Cytotoxicity Assay) was added to 30 μL of the cell lysate, a reaction was allowed to proceed at room temperature in the dark for 30 minutes. After 30 μL of a stop solution (Promega, CytoTox 96 Non-Radioactive Cytotoxicity Assay) was added to each, and then an absorbance at 490 nm was measured using a plate reader. The absorbance obtained here represents a detection result of an activity of lactate dehydrogenase (LDH) eluted in the supernatant of each well, that is, the absorbance is proportional to the number of RPMI-8866 cells bound to the MAdCAM-1 and thus remaining on the plate. The test was performed in duplicate. Provided that the absorbance of the well containing no test substance was 100%, a cell binding rate with the test substance at each of the various concentrations was figured out, and a concentration IC50 which brought about 50% binding inhibition was calculated.

IC50 [nM] | SMILES
0.25 | Cc1c(C)n(C)c(=O)n(-c2ccc(C[C@H](NC(=O)c3cc(F)c(NS(=O)(=O)c4ccc(NC(=O)C5(C(F)(F)F)CC5)cc4)cc3F)C(=O)O)cc2)c1=O [Compound A20]
2.3 | Cc1cn(C)c(=O)n(-c2ccc(C[C@H](NC(=O)c3cc(F)c(NS(=O)(=O)c4ccc(NC(=O)C5(C#N)CC5)cc4)cc3F)C(=O)O)cn2)c1=O [Compound A60]
0.98 | Cc1c(C)n(C)c(=O)n(-c2ccc(C[C@H](NC(=O)c3cc(F)c(NS(=O)(=O)c4ccc(NC(=O)C5(O)CC5)cc4)cc3F)C(=O)O)cc2)c1=O [Compound A22]
1.9 | Cn1cc(C(F)(F)F)c(=O)n(-c2ccc(C[C@H](NC(=O)c3cc(F)c(NS(=O)(=O)c4ccc(NC(=O)C(C)(C)C)cc4)cc3F)C(=O)O)cn2)c1=O [Compound A67]
3.3 | Cn1c(C(F)(F)F)cc(=O)n(-c2ccc(C[C@H](NC(=O)c3cc(F)c(NS(=O)(=O)c4ccc(NC(=O)C(C)(C)C)cc4)cc3F)C(=O)O)cn2)c1=O [Compound A66]
2.2 | Cn1ccc(=O)n(-c2ccc(C[C@H](NC(=O)c3cc(F)c(NS(=O)(=O)c4ccc(NC(=O)C5(C(F)(F)F)CC5)cc4)cc3F)C(=O)O)cn2)c1=O [Compound A55]
3.3 | Cn1ccc(=O)n(-c2ccc(C[C@H](NC(=O)c3cc(F)c(NS(=O)(=O)c4ccc(NC(=O)C5(C#N)CC5)cc4)cc3F)C(=O)O)cn2)c1=O [Compound A59]
0.77 | Cn1ccc(=O)n(-c2ccc(C[C@H](NC(=O)c3cc(F)c(NS(=O)(=O)c4ccc(NC(=O)C(C)(C)C)cc4)cc3F)C(=O)O)cc2)c1=O [Compound A42]
1.2 | Cc1cn(C)c(=O)n(-c2ccc(C[C@H](NC(=O)c3cc(F)c(NS(=O)(=O)c4ccc(NC(=O)C5(C(F)(F)F)CC5)cc4)cc3F)C(=O)O)cn2)c1=O [Compound A56]

The next lines start with the compound.

SMILES | IC50 [nM]
COc1cc2c(=O)n(-c3ccc(C[C@H](NC(=O)c4cc(F)c(NS(=O)(=O)c5ccc(NC(=O)C(C)(C)C)cc5)cc4F)C(=O)O)cc3)c(=O)n(C)c2cn1 [Compound A36] | 0.94
Cn1c(=O)n(-c2ccc(C[C@H](NC(=O)c3cc(F)c(NS(=O)(=O)c4ccc(NC(=O)C(C)(C)C)cn4)cc3F)C(=O)O)cn2)c(=O)c2ccncc21 [Compound A31] | 0.71
Cc1c(C)n(C)c(=O)n(-c2ccc(C[C@H](NC(=O)c3cc(F)c(NS(=O)(=O)c4ccc(-n5ccc(C6CCOCC6)cc5=O)cc4)cc3F)C(=O)O)cc2)c1=O [Compound A34] | 3.4
CC(=O)Nc1ccc(S(=O)(=O)Nc2cc(F)c(C(=O)N[C@@H](Cc3ccc(-n4c(=O)c5ccncc5n(C)c4=O)cc3)C(=O)O)cc2F)cc1 [Compound A2] | 1.2
Cn1c(=O)n(-c2ccc(C[C@H](NC(=O)c3cc(F)c(NS(=O)(=O)c4ccc(NC(=O)NC(C)(C)C)cc4)cc3F)C(=O)O)cc2)c(=O)c2ccncc21 [Compound A5] | 2.3
Cc1c(C)n(C)c(=O)n(-c2ccc(C[C@H](NC(=O)c3cc(F)c(NS(=O)(=O)c4ccc(NC(=O)C(C)(C)C)cc4)cc3F)C(=O)O)cc2)c1=O [Compound A8] | 0.33
CN1CCc2c(n(C)c(=O)n(-c3ccc(C[C@H](NC(=O)c4cc(F)c(NS(=O)(=O)c5ccc(NC(=O)C(C)(C)C)cc5)cc4F)C(=O)O)cc3)c2=O)C1 [Compound A41] | 0.29
Cc1c(C)n(C)c(=O)n(-c2ccc(C[C@H](NC(=O)c3cc(F)c(NS(=O)(=O)c4ccc(N(C)C(=O)C(C)(C)C)cc4)cc3F)C(=O)O)cc2)c1=O [Compound A35] | 9.8
Cn1c(=O)n(-c2ccc(C[C@H](NC(=O)c3cc(F)c(NS(=O)(=O)c4ccc(NC(=O)C(C)(C)C)cc4)cc3F)C(=O)O)cc2)c(=O)c2ccncc21 [Compound A1, (2S)-2-[[4-[[4-(2,2-dimethylpropanoylamino)phenyl]sulfonylamino]-2,5-difluoro-benzoyl]amino]-3-[4-(1-methyl-2,4-dioxo-pyrido[3,4-d]pyrimidin-3-yl)phenyl]propanoic acid] | 0.26
Cc1c(C)n(C)c(=O)n(-c2ccc(C[C@H](NC(=O)c3cc(F)c(NS(=O)(=O)c4ccc(NC(=O)C5CCOCC5)cc4)cc3F)C(=O)O)cc2)c1=O [Compound A15] | 0.93
